Measured values reported in publication PMC10820527, “Synthesis, Characterization, and Investigation of Anti-Inflammatory and Cytotoxic Activities of Novel Thiourea Derivatives of Naproxen” (Pharmaceutics, 2023).

Key:
HCT 116 = test: MTT cytotoxicity assay, HCT 116; format: cell-based, human; conditions: for IC50: Homo sapiens, mean ± SD
Method: (§1) Three cancer cell lines (MDA-MB-231, HCT116 and HeLa; i.e., human breast cancer cells, human colorectal cancer cells, and human cervical cancer cells, respectively), and one non-malignant fibroblast MRC-5 cell line (control) were used in this study. The American Type Cell Collection (ATCC, Manassas, VA, USA) provided all examined cell lines. The cells were grown in a complete medium made up of high-glucose DMEM media supplemented with 10% fetal bovine serum and […] L-glutamine (both from Sigma-Aldrich, USA). The cells were cultured in 25 cc flasks (Thermo Fischer Scientific, Waltham, MA, USA) at 37 °C with 100% humidity in a 5% CO2 atmosphere.
(§2) The MTT test was used to assess the cytotoxicity of compounds 1–14 [44]. The cytotoxicity of naproxen was also investigated due to its clinical use and structural similarity. Throughout the exponential development period, cells were taken from culture flasks and counted, and 5 × 10^3 cells/well were planted into 96-well culture plates. Following that, the cell lines were treated with varying doses of the investigated chemicals (1–14), naproxen ([…]), and fresh complete media as a control. All evaluated cells were incubated for 24, 48, and 72 h at 37 °C in an environment containing 5% CO2 and 100% humidity. Following incubation, each well’s culture media was taken out, each well received an addition of MTT solution at a final concentration of 0.5 mg/mL, and the cells were left to incubate for an additional four hours. The MTT solution was then withdrawn carefully, and the formazan crystals were dissolved in DMSO. After shaking the plates for 10 min, absorbance at 595 nm was measured using a multiplate reader (Zenyth 3100, Anthos Labtec Instruments, Salzburg, Austria). All concentrations of the tested compounds were performed in three separate wells of the microtiter plates and in three separate experiments. The results were reported as a ratio to the control value, untreated cells. IC50 values were also determined using Microsoft Office Excel 2021. The percentage of viable cells was estimated by dividing the readout absorbance value in the wells containing treated cells by the average absorbance value measured in the wells containing untreated cells, and multiplying the result by 100 [44]. % of the viable cells = ((absorbance of treated cell-absorbance of blank)/(absorbance of untreated cell-absorbance of blank)) × 100(3)

[1] = test system: carrageenan-induced rat paw edema; test: Carrageenan-induced rat paw edema model; format: in vivo; conditions: for Rat Paw Thickness: mean ± SD; for inhibition in vivo at 2.5 mg/kg / inhibition in vivo at 5 mg/kg / inhibition in vivo at 10 mg/kg: Rattus norvegicus
Method: The Carrageenan-induced rat paw edema model was used to assess the anti-inflammatory potential of novel compounds 8–14. Induction of inflammation was performed in all animals by intraplantar injection of […] 0.5% carrageenan saline into the left hind paw.
Animals (n = 200) were randomly divided into the following groups: control groups, that received either 1% DMSO or naproxen, and experimental groups, that received the novel compounds 8–14.
Control groups included DMSO and naproxen groups. Rats belonging to the DMSO group received 1% DMSO in the same volume as the compounds 8–14, 60 min before carrageenan injection. Moreover, naproxen groups included rats that were subjected to naproxen treatment in three doses: 2.5 mg/kg, 5 mg/kg, and 10 mg/kg. Naproxen was applied in the same manner as 1% DMSO.
Experimental groups included rats that were treated with compounds 8–14 and they were divided into three subgroups depending on the applied dose: 2.5 mg/kg, 5 mg/kg, and 10 mg/kg. The examined compounds were dissolved in 1% DMSO prior to treatment and applied to rats 60 min before inducing inflammation, i.e., before carrageenan injection. Doses of naproxen and investigated compounds were defined based on our previously published research.
In order to quantify the anti-inflammatory effects of the tested compounds, left paw thickness was measured at specific time points: prior to inflammation induction (moment 0) and 1, 2, 3, and 4 h (moments 1, 2, 3, and 4) following carrageenan injection. Tissue thickness was measured in the middle of the rat paw using a Digital Vernier caliper (Aerospace, China). The percentage of inhibition of paw edema after treatment with different agents was calculated according to the formula, Equation (2):% Inhibition = 100 × [1 − (Yt/Yc)](2) where Yt = average increase in paw thickness in the treated group of rats between two measurement moments, and Yc = average increase in paw thickness in the untreated group of rats between two measurement moments.

HeLa = test: MTT cytotoxicity assay, HeLa; format: cell-based, human; conditions: for IC50: mean ± SD
Method: as §1, §2

[2] = 2.5 mg/kg, 1 h after carrageenan
[3] = 2.5 mg/kg, 2 h after carrageenan
[4] = 2.5 mg/kg, 3 h after carrageenan
[5] = 2.5 mg/kg, 4 h after carrageenan
[6] = 5.0 mg/kg, 1 h after carrageenan
[7] = 5.0 mg/kg, 2 h after carrageenan
[8] = 5.0 mg/kg, 3 h after carrageenan
[9] = 5.0 mg/kg, 4 h after carrageenan
[10] = 10.0 mg/kg, 1 h after carrageenan
[11] = 10.0 mg/kg, 2 h after carrageenan
[12] = 10.0 mg/kg, 3 h after carrageenan
[13] = 10.0 mg/kg, 4 h after carrageenan

SMILES	IC50 (HCT 116; HCT-116, 24 h)	IC50 (HCT 116; HCT-116, 48 h)	IC50 (HCT 116; HCT-116, 72 h)	Rat Paw Thickness [1, 2]	Rat Paw Thickness [1, 3]	Rat Paw Thickness [1, 4]	Rat Paw Thickness [1, 5]	Rat Paw Thickness [1, 6]	Rat Paw Thickness [1, 7]	Rat Paw Thickness [1, 8]	Rat Paw Thickness [1, 9]	Rat Paw Thickness [1, 10]	Rat Paw Thickness [1, 11]	Rat Paw Thickness [1, 12]	Rat Paw Thickness [1, 13]	inhibition in vivo at 2.5 mg/kg ([1]; 2.5 mg/kg, 1 h)	inhibition in vivo at 2.5 mg/kg ([1]; 2.5 mg/kg, 2 h)	inhibition in vivo at 2.5 mg/kg ([1]; 2.5 mg/kg, 3 h)	inhibition in vivo at 2.5 mg/kg ([1]; 2.5 mg/kg, 4 h)	inhibition in vivo at 5 mg/kg ([1]; 5.0 mg/kg, 1 h)	further results
COc1ccc2cc([C@H](C)C(=O)NC(=S)Nc3ccccc3)ccc2c1 [Compound 8, (S)-2-(6-methoxynaphthalen-2-yl)-N-(phenylcarbamothioyl)propanamide]	> 200 µM	> 200 µM	101 ± 15.5 µM	5.67 ± 0.15 mm	5.43 ± 0.15 mm	5.07 ± 0.21 mm	4.53 ± 0.50 mm	6.0 ± 0.36 mm	5.8 ± 0.44 mm	5.40 ± 0.44 mm	4.96 ± 0.35 mm	6.0 ± 0.40 mm	5.60 ± 0.44 mm	5.27 ± 0.38 mm	5.07 ± 0.21 mm	19.7%	21.2%	26.1%	44.4%	23.8%	inhibition in vivo at 5 mg/kg ([1]; 5.0 mg/kg, 2 h): 24.2%; inhibition in vivo at 5 mg/kg ([1]; 5.0 mg/kg, 3 h): 31.5%; inhibition in vivo at 5 mg/kg ([1]; 5.0 mg/kg, 4 h): 44.9%; inhibition in vivo at 10 mg/kg ([1]; 10.0 mg/kg, 1 h): 29.3%; inhibition in vivo at 10 mg/kg ([1]; 10.0 mg/kg, 2 h): 39.4%; inhibition in vivo at 10 mg/kg ([1]; 10.0 mg/kg, 3 h): 45.9%; inhibition in vivo at 10 mg/kg ([1]; 10.0 mg/kg, 4 h): 46.7%; Cytotoxic effect against HeLa cells (in words) (HeLa): strong cytotoxic effects; IC50 (HeLa; 72 h): 9.1 ± 2.5 µM; IC50 (HeLa; Homo sapiens, HeLa, 24 h): > 140 µM; IC50 (HeLa; Homo sapiens, HeLa, 48 h): 97.6 ± 10.9 µM; IC50 (HeLa; Homo sapiens, HeLa, 72 h): 9 ± 2 µM
COc1ccc2cc([C@H](C)C(=O)NC(=S)Nc3ccc(C)cc3)ccc2c1 [Compound 9, (S)-2-(6-methoxynaphthalen-2-yl)-N-(p-tolylcarbamothioyl)propanamide]	> 200 µM	105 ± 14.8 µM	52.9 ± 8.1 µM	6.60 ± 0.10 mm	6.33 ± 0.06 mm	5.97 ± 0.06 mm	5.70 ± 0.26 mm	6.53 ± 0.32 mm	6.23 ± 0.23 mm	5.90 ± 0.17 mm	5.50 ± 0.36 mm	6.20 ± 0.17 mm	5.83 ± 0.29 mm	5.33 ± 0.15 mm	5.05 ± 0.09 mm	25.2%	28.8%	35.1%	37.8%	22.4%	Cytotoxic effect against the HCT 116 cell line (in words) (HCT 116): moderate cytotoxic effects; inhibition in vivo at 5 mg/kg ([1]; 5.0 mg/kg, 2 h): 27.3%; inhibition in vivo at 5 mg/kg ([1]; 5.0 mg/kg, 3 h): 31.5%; inhibition in vivo at 5 mg/kg ([1]; 5.0 mg/kg, 4 h): 42.2%; inhibition in vivo at 10 mg/kg ([1]; 10.0 mg/kg, 1 h): 22.4%; inhibition in vivo at 10 mg/kg ([1]; 10.0 mg/kg, 2 h): 30.3%; inhibition in vivo at 10 mg/kg ([1]; 10.0 mg/kg, 3 h): 44.1%; inhibition in vivo at 10 mg/kg ([1]; 10.0 mg/kg, 4 h): 50%; IC50 (HeLa; Homo sapiens, HeLa, 24 h): > 200 µM; IC50 (HeLa; Homo sapiens, HeLa, 48 h): > 200 µM; IC50 (HeLa; Homo sapiens, HeLa, 72 h): 120 ± 8.7 µM
COc1ccc2cc([C@H](C)C(=O)NC(=S)Nc3ccccc3C)ccc2c1 [Compound 10, (S)-2-(6-methoxynaphthalen-2-yl)-N-(o-tolylcarbamothioyl)propanamide]	120 ± 8.8 µM	97.2 ± 6.8 µM	33.3 ± 5.5 µM	6.17 ± 0.51 mm	6.07 ± 0.83 mm	5.77 ± 0.85 mm	5.17 ± 0.75 mm	6.47 ± 0.51 mm	6.13 ± 0.47 mm	5.77 ± 0.32 mm	5.67 ± 0.40 mm	6.20 ± 0.36 mm	5.93 ± 0.31 mm	5.70 ± 0.44 mm	5.20 ± 0.44 mm	18.4%	13.6%	13.5%	33.3%	29.3%	Cytotoxic effect against the HCT 116 cell line (in words) (HCT 116): moderate cytotoxic effects; inhibition in vivo at 5 mg/kg ([1]; 5.0 mg/kg, 2 h): 36.4%; inhibition in vivo at 5 mg/kg ([1]; 5.0 mg/kg, 3 h): 44.1%; inhibition in vivo at 5 mg/kg ([1]; 5.0 mg/kg, 4 h): 37.8%; inhibition in vivo at 10 mg/kg ([1]; 10.0 mg/kg, 1 h): 19.7%; inhibition in vivo at 10 mg/kg ([1]; 10.0 mg/kg, 2 h): 22.7%; inhibition in vivo at 10 mg/kg ([1]; 10.0 mg/kg, 3 h): 20.7%; inhibition in vivo at 10 mg/kg ([1]; 10.0 mg/kg, 4 h): 35.6%; Cytotoxic effect against HeLa cells (in words) (HeLa): moderate cytotoxic effect; IC50 (HeLa; Homo sapiens, HeLa, 24 h): > 200 µM; IC50 (HeLa; Homo sapiens, HeLa, 48 h): 111 ± 8.3 µM; IC50 (HeLa; Homo sapiens, HeLa, 72 h): 85.3 ± 9.1 µM
